Data as given in publication PMC9334274, “A unique class of Zn^2+-binding serine-based PBPs underlies cephalosporin resistance and sporogenesis in Clostridioides difficile” (Nature Communications, 2022).
Converted amounts (≈) assume the structure as drawn. “And” between values parts separate entries of the source, which are not always exact repeats. Identical values can stand only once. Like-named read-outs stand apart in the source and are kept apart here.

What was measured:
[1] = molecular target: PBP2WT (Clostridioides difficile, UniProt A0A9R0CDX1); test: biochemical; format: binding
[2] = molecular target: T1, PBP2D515N (Clostridioides difficile, UniProt A0A9R0CDX1, D515N); test: biochemical; format: binding
T1 sequence (A0A9R0CDX1 36-962 D515N): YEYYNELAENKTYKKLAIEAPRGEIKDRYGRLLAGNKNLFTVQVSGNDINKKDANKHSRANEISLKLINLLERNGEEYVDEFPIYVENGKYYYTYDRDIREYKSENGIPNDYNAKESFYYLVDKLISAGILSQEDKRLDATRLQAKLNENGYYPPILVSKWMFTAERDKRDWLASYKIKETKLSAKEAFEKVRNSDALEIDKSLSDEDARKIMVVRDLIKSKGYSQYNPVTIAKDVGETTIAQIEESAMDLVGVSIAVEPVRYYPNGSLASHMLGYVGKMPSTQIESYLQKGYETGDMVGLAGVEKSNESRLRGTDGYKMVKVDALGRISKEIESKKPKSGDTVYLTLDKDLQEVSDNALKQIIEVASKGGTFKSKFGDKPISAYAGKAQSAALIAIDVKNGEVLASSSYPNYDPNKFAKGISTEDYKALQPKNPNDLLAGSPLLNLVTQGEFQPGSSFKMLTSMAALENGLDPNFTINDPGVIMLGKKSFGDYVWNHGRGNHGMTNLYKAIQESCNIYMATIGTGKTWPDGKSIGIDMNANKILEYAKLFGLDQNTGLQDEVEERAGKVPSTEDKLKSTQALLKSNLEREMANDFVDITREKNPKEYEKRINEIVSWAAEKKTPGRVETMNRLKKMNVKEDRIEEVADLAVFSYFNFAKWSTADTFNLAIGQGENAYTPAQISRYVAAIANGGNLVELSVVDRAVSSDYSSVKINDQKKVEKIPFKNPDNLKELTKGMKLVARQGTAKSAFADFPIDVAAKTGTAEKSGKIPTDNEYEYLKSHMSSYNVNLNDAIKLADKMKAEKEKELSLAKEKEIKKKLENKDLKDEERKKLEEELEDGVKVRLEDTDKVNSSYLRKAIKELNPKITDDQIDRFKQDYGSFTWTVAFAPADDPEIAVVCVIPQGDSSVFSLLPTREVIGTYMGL

[3] = system: PBP2; settings: 2 mM EDTA
[4] = system: C. difficile strain R20291; test: Minimum inhibitory concentration (MIC) determination; settings: for MIC: Clostridioides difficile, R20291, 24 h
[5] = system: Ldt3; format: biochemical, Clostridioides difficile R20291
[6] = system: Ldt2; test: Nitrocefin inhibition assay, Ldt2; format: biochemical, Clostridioides difficile R20291; settings: for Nitrcoefin hydrolysis vs inhibitor (reaction curve reading): Idt2, representative curve; for Ldt2 % inhibiton: β-lactam at 25 uM, nitrocefin hydrolysis, two independent experiments, individual values
Experimental: Reactions were performed in a 96-well polystyrene plate with a final volume of 60 μL at 37 °C in 20 mM Tris pH 7, 200 mM NaCl. […] Protein was then added to the well for a final concentration of 1 µM and incubated for 15 min at 37 °C. 1 µL of nitrocefin (Millipore Sigma) was then added to each well for a final concentration of 20 µM, and reaction progress was monitored using a BioTek Cytation 5 plate reader (BioTek Instruments) at 488 nm and 37 °C for 1 h. Reaction rates were normalized to the control (no inhibitor) for % inhibition values. Assays were performed in duplicate and mean % inhibition values was calculated.

[7] = system: C. difficile PBP3; format: binding, Clostridioides difficile R20291; settings: 25 µM
[8] = system: C. difficile; parameters: method as in PMID 29533126; settings: cited from earlier work

Molecule: Cc1cc(C)n2c1C=C1C=CC(CCC(=O)Nc3ccc(OCC(=O)N[C@@H]4C(=O)N5[C@@H]4SC(C)(C)[C@@H]5C(=O)O)cc3)=[N+]1[B-]2(F)F [bocillin]
- Kd [1]: 2950 ± 720 nM
- Kd [2]: 16.7 ± 2.72 µM

Molecule: O=C(O)CN(CCN(CC(=O)O)CC(=O)O)CC(=O)O [EDTA]
- PBP2 activity [3]: not affected

Molecule: C[C@@H](O)[C@H]1C(=O)N2C(C(=O)O)=C(S[C@@H]3CN[C@H](CNS(N)(=O)=O)C3)[C@H](C)[C@H]12 [doripenem]
- MIC [4]: 1 µg/mL (≈ 2.38 µM)
- Ldt3 % inhibiton ([5]; 25 µM): 49.0108% and 45.9504%
- Nitrcoefin hydrolysis vs inhibitor (reaction curve reading) ([5]; time 0 s): 0.045
- Nitrcoefin hydrolysis vs inhibitor (reaction curve reading) ([5]; time 300 s): 0.046
- Nitrcoefin hydrolysis vs inhibitor (reaction curve reading) ([5]; time 600 s): 0.048
- Nitrcoefin hydrolysis vs inhibitor (reaction curve reading) ([5]; time 900 s): 0.049
- Nitrcoefin hydrolysis vs inhibitor (reaction curve reading) ([5]; time 1200 s): 0.05
- Nitrcoefin hydrolysis vs inhibitor (reaction curve reading) ([5]; time 1500 s): 0.051
- Nitrcoefin hydrolysis vs inhibitor (reaction curve reading) ([5]; time 1800 s): 0.052
- Nitrcoefin hydrolysis vs inhibitor (reaction curve reading) ([5]; time 2100 s): 0.052
- Nitrcoefin hydrolysis vs inhibitor (reaction curve reading) ([5]; time 2400 s): 0.053
- inhibition of Ldt2 (in words) ([6]; 25 µM): best inhibitors of Ldt2
- Nitrcoefin hydrolysis vs inhibitor (reaction curve reading) ([6]; time 0 s): 0.043
- Nitrcoefin hydrolysis vs inhibitor (reaction curve reading) ([6]; time 300 s): 0.044
- Nitrcoefin hydrolysis vs inhibitor (reaction curve reading) ([6]; time 600 s): 0.045
- Nitrcoefin hydrolysis vs inhibitor (reaction curve reading) ([6]; time 900 s): 0.045
- Nitrcoefin hydrolysis vs inhibitor (reaction curve reading) ([6]; time 1200 s): 0.045
- Nitrcoefin hydrolysis vs inhibitor (reaction curve reading) ([6]; time 1500 s): 0.045
- Nitrcoefin hydrolysis vs inhibitor (reaction curve reading) ([6]; time 1800 s): 0.046
- Nitrcoefin hydrolysis vs inhibitor (reaction curve reading) ([6]; time 2100 s): 0.046
- Nitrcoefin hydrolysis vs inhibitor (reaction curve reading) ([6]; time 2400 s): 0.047
- Ldt2 % inhibiton ([6]; listed as DOR, 25 µM): 92.8305% and 93.0982%
- PBP3 % inhibiton [7]: 95.9747% and 95.7759% and 97.3818%

Molecule: CC1(C)S[C@@H]2[C@H](NC(=O)Cc3ccccc3)C(=O)N2[C@H]1C(=O)O [penicillin G]
- MIC (X) [4]: 1
- MIC [4]: 1 µg/mL (≈ 2.99 µM)
- Ldt3 % inhibiton ([5]; 25 µM): 58.9928% and 66.7769%
- Ldt2 % inhibiton ([6]; listed as EM, 25 µM): 2.091% and 5.675%
- PBP3 % inhibiton [7]: 94.9098% and 94.1115% and 95.4645%

Molecule: CO/N=C(\C(=O)N[C@@H]1C(=O)N2C(C(=O)O)=C(COC(C)=O)CS[C@H]12)c1csc(N)n1 [cefotaxime]
- MIC (X) [4]: 256
- MIC [4]: 256 µg/mL (≈ 562 µM)
- Ldt3 % inhibiton ([5]; 25 µM): 7.194% and 11.4876%
- Ldt2 % inhibiton ([6]; listed as CTX, 25 µM): 12.8454% and 16.2577%
- PBP3 % inhibiton [7]: 100.738% and 94.6733% and 99.7428%

Molecule: Cc1onc(-c2ccccc2Cl)c1C(=O)N[C@@H]1C(=O)N2[C@@H]1SC(C)(C)[C@@H]2C(=O)O [cloxacillin]
- MIC [4]: 16 µg/mL (≈ 36.7 µM)
- Ldt3 % inhibiton ([5]; 25 µM): 89.2086% and 94.2975%
- inhibition of Ldt3 (in words) ([5]; 25 µM): best
- Nitrcoefin hydrolysis vs inhibitor (reaction curve reading) ([5]; time 0 s): 0.044
- Nitrcoefin hydrolysis vs inhibitor (reaction curve reading) ([5]; time 300 s): 0.045
- Nitrcoefin hydrolysis vs inhibitor (reaction curve reading) ([5]; time 600 s): 0.045
- Nitrcoefin hydrolysis vs inhibitor (reaction curve reading) ([5]; time 900 s): 0.046
- Nitrcoefin hydrolysis vs inhibitor (reaction curve reading) ([5]; time 1200 s): 0.046
- Nitrcoefin hydrolysis vs inhibitor (reaction curve reading) ([5]; time 1500 s): 0.046
- Nitrcoefin hydrolysis vs inhibitor (reaction curve reading) ([5]; time 1800 s): 0.046
- Nitrcoefin hydrolysis vs inhibitor (reaction curve reading) ([5]; time 2100 s): 0.046
- Nitrcoefin hydrolysis vs inhibitor (reaction curve reading) ([5]; time 2400 s): 0.046
- Nitrcoefin hydrolysis vs inhibitor (reaction curve reading) ([6]; time 0 s): 0.044
- Nitrcoefin hydrolysis vs inhibitor (reaction curve reading) ([6]; time 300 s): 0.046
- Nitrcoefin hydrolysis vs inhibitor (reaction curve reading) ([6]; time 600 s): 0.048
- Nitrcoefin hydrolysis vs inhibitor (reaction curve reading) ([6]; time 900 s): 0.05
- Nitrcoefin hydrolysis vs inhibitor (reaction curve reading) ([6]; time 1200 s): 0.051
- Nitrcoefin hydrolysis vs inhibitor (reaction curve reading) ([6]; time 1500 s): 0.053
- Nitrcoefin hydrolysis vs inhibitor (reaction curve reading) ([6]; time 1800 s): 0.054
- Nitrcoefin hydrolysis vs inhibitor (reaction curve reading) ([6]; time 2100 s): 0.056
- Nitrcoefin hydrolysis vs inhibitor (reaction curve reading) ([6]; time 2400 s): 0.057
- Ldt2 % inhibiton ([6]; listed as ClX, 25 µM): 15.534% and 20.6288%
- PBP3 % inhibiton [7]: 82.7754% and 83.7053% and 84.4216%

B1: calprotectin: a protein secreted by the immune system in response to intestinal inflammation; chelator of divalent cations such as Ca2+ and Zn2+ (protein, UniProt P05109 1-93; P06702 1-114, looked up)
Protein S100-A8: MLTELEKALNSIIDVYHKYSLIKGNFHAVYRDDLKKLLETECPQYIRKKGADVWFKELDINTDGAVNFQEFLILVIKMGVAAHKKSHEESHKE
Protein S100-A9: MTCKMSQLERNIETIINTFHQYSVKLGHPDTLNQGEFKELVRKDLQNFLKKENKNEKVIEHIMEDLDTNADKQLSFEEFIMLMARLTWASHEKMHEGDEGPGHHHKPGLGEGTP
- C. difficile growth (in words) [8]: inhibits C. difficile growth
